According to PMC11224556, “Next-generation of BBQ analogues that selectively target breast cancer” (Frontiers in Chemistry, 2024):

Target: T1, AhR (Homo sapiens, UniProt P35869)
T1 construct: This cell line stably expresses the secreted Lucia luciferase reporter gene under the control of a minimal promoter; host or cells: HT29-Lucia AhR reporter cells
T1 sequence (P35869 11-848): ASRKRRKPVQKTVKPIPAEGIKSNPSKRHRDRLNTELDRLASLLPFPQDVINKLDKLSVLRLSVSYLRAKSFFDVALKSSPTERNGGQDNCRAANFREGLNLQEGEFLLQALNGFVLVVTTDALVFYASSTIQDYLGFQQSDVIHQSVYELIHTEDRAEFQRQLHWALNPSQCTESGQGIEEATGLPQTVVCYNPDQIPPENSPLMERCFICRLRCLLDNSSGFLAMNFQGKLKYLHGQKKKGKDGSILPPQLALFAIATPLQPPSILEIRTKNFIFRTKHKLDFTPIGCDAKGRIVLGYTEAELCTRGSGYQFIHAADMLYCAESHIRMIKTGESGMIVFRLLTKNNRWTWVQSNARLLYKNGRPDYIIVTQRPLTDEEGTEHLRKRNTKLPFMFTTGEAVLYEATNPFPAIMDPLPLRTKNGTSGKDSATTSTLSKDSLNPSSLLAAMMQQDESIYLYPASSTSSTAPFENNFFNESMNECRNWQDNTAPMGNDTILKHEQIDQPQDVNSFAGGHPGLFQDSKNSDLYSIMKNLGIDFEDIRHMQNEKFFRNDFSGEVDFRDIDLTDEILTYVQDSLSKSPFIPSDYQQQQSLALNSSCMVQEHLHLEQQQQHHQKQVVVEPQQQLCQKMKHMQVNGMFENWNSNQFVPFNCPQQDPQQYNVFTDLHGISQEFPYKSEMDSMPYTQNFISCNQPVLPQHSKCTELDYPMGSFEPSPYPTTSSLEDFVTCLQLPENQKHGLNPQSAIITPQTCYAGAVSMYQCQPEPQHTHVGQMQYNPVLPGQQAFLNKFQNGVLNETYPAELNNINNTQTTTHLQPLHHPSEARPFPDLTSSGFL
Experiment: AhR transcription reporter assay (HT29-Lucia AhR cells)
Assay type: cell-based
Settings: 1 µM, 24 h, relative to DMSO
Excerpt: Our previous studies have shown that the activity of NAP-6 (2) and 10-Cl-BBQ (3) required the activation of the AhR pathway and the induction of CYP1 family of phase I metabolising enzymes ([Gilbert et al., 2020]; [Baker et al., 2021a]). Therefore, we sought to determine the activation of AhR using a stable AhR reporter assay in HT29-Lucia™ AhR cells, in the presence of each BBQ analogue (Figure 3). Activation of the AhR was indicated by enhanced luminescence caused by the translocation of the AhR to the nucleus of the cell and interaction with the xenobiotic response elements imbedded in the luciferase gene.
Stock solutions were prepared as follows and stored as 20 mM DMSO solutions at −20 °C. All cell lines were cultured in a humidified atmosphere 5% CO2 at 37 °C. The cancer cell lines were maintained in Dulbecco’s modified Eagle’s medium (DMEM) (Trace Biosciences, Australia) supplemented with 10% foetal bovine serum (FBS), 10 mM sodium bicarbonate, penicillin (100 IU/mL), streptomycin (100 μg/mL), and glutamine (4 mM). The non-cancer MCF10A cell line was cultured in DMEM:F12 (1:1) cell culture media, 5% heat inactivated horse serum, supplemented with penicillin (50 IU/mL), streptomycin (50 μg/mL), 20 mM Hepes, L-glutamine (2 mM), epidermal growth factor (20 ng/mL), hydrocortisone (500 ng/mL), cholera toxin (100 ng/mL), and insulin (10 μg/mL). The AhR reporter cell line HT29-Lucia™ (Invivogen, United States) was maintained in DMEM supplemented with 10% heat inactivated FBS, L-glutamine (2 mM), penicillin (100 IU/mL), streptomycin (100 μg/mL), 100 μg/mL Normocin™, and 100 μg/mL of the selective antibiotic Zeocin™. All cell lines were purchased from the American Type Culture Collection (ATCC), except for A2780 and A431 which were from the European Collection of Authenticated Cell Cultures (ECACC), and SJ-G2 cell line which was from Dr Mary Danks, St Jude Children’s Research hospital, Memphis, TN.
The activity of the AhR signalling pathway was measured using the stably transfected AhR cell line, HT29-Lucia™ (Invivogen, United States). This cell line stably expresses the secreted Lucia luciferase reporter gene under the control of a minimal promoter coupled with the human CYP1A1 gene entire regulatory sequence, containing six DREs. The Lucia luciferase reporter protein is readily measurable in the cell culture supernatant using QUANTI-Luc™. For the determination of AhR activity, 4 × 10^4 cells in 180 μL was plated into each well of a 96 well micro-titre plate in the absence of antibiotics and allowed to culture for 24 h prior to the addition of test compounds in a volume of 20 μL. At the indicated time, 20 μL of cell supernatant was transferred to a white luminometer plate and 50 µL of QUANTI-Luc was added immediately prior to reading the luminescence using a GloMax Explorer Luminescence Plate Reader. The promoter activity was conducted in duplicate and the values expressed as fold-change relative to DMSO (0.1%) treated cells. The AhR ligand, FICZ (6-formylindolo[3,2-b]carbazole) and AhR inhibitor CH223191 were included for study as positive and negative controls, respectively. […] Results are presented as the mean ± standard error of the mean (SEM) of analysis conducted in duplicate and repeated on three separate occasions.

Compound	AhR activation, Fold Reporter Induction [fold]
O=c1c2cccc3cccc(c32)c2nc3cc(Cl)ccc3n12 [Compound 4, 11-Chloro-7H-benzo[de]benzo[4,5]imidazo[2,1-a]isoquinolin-7-one]	2.9
3-Nitro-7H-benzo[de]benzo[4,5]imidazo[2,1-a]isoquinolin-7-one (11a) and 4-nitro-7H-benzo[de]benzo[4,5]imidazo[2,1-a]isoquinolin-7-one (11b) [Compound 11]	10.2
3-Chloro-7H-benzo[de]benzo[4,5]imidazo[2,1-a]isoquinolin-7-one (10a) and 4-chloro-7H-benzo[de]benzo[4,5]imidazo[2,1-a]isoquinolin-7-one (10b) [Compound 10]	2.7
O=C(O)c1ccc2c3c1cccc3c(=O)n1c3ccccc3nc21 [Compound 14, reference compound]	1.5
Nc1ccccc1N1C(=O)c2cccc3cccc(c23)C1=O [Compound 2, 2-(2-aminophenyl)-1H-benzo[de]isoquinoline-1,3(2H)-dione]	1.8
10-Methyl-7H-benzo[de]benzo[4,5]imidazo[2,1-a]isoquinolin-7-one (7a) and 11-methyl-7H-benzo[de]benzo[4,5]imidazo[2,1-a]isoquinolin-7-one (7b) [Compound 7]	2.8
9-Methyl-7H-benzo[de]benzo[4,5]imidazo[2,1-a]isoquinolin-7-one (8a) and 12-methyl-7H-benzo[de]benzo[4,5]imidazo[2,1-a]isoquinolin-7-one (8b) [Compound 8]	2.5
O=c1c2cccc3cccc(c32)c2nc3ccc(Cl)cc3n12 [Compound 3, 10-Chloro-7H-benzo[de]benzo[4,5]imidazo[2,1-a]isoquinolin-7-one]	2.7
O=c1c2cccc3cccc(c4n1Cc1ccccc1N=4)c32 [Compound 13, 7H,9H-benzo[4,5]isoquinolino[1,2-b]quinazolin-7-one]	1.8
7-Oxo-7H-benzo[de]benzo[4,5]imidazo[2,1-a]isoquinoline-10-carbonitrile (9a) and 7-oxo-7H-benzo[de]benzo[4,5]imidazo[2,1-a]isoquinoline-11-carbonitrile (9b) [Compound 9]	2.5
O=c1c2ccccc2cc2[nH]c3ccccc3n12 [Compound 12, Benzo[4,5]imidazo[1,2-b]isoquinolin-11(5H)-one]	1.2
O=c1c2cccc3cccc(c32)c2nc3ccccc3n12 [Compound 5, 7H-Benzo[de]benzo[4,5]imidazo[2,1-a]isoquinolin-7-one]	3.1
